Measurements: publication PMC5218480 (PLoS ONE, 2017)

Tested on: MV-4-11 cells
Test: Gene expression microarray analysis (Affymetrix PrimeView) and GSEA
Type: cell-based, human
Set-up: RFU PODN (11730768_x_at) / Fold change /veh PODN (11730768_x_at) / RFU LINC00158 (11744669_a_at) / Fold change /veh LINC00158 (11744669_a_at) / RFU DUSP10 (11751237_a_at) / Fold change /veh DUSP10 (11751237_a_at) / RFU ID3 (11757404_x_at) / Fold change /veh ID3 (11757404_x_at) / RFU PLEKHG5 (11737974_s_at) / Fold change /veh PLEKHG5 (11737974_s_at) / RFU LRRC4B (11730491_at) / Fold change /veh LRRC4B (11730491_at) / RFU GIMAP4 (11747438_a_at) / Fold change /veh GIMAP4 (11747438_a_at) / RFU KRT8 (11758183_x_at) / Fold change /veh KRT8 (11758183_x_at) / RFU CNN1 (11734310_a_at) / Fold change /veh CNN1 (11734310_a_at) / RFU VPS37D (11726825_at) / Fold change /veh VPS37D (11726825_at) / RFU C10orf10 (11716522_x_at) / Fold change /veh C10orf10 (11716522_x_at) / RFU KIR2DL2 /// KIR2DL4 /// KIR2DL5A /// KIR2DL5B /// KIR2DS1 /// KIR2DS2 /// KIR2DS3 /// KIR2DS4 /// KIR3DL3 /// KIR3DL3 /// KIR3DS1 (11738374_at) / Fold change /veh KIR2DL2 /// KIR2DL4 /// KIR2DL5A /// KIR2DL5B /// KIR2DS1 /// KIR2DS2 /// KIR2DS3 /// KIR2DS4 /// KIR3DL3 /// KIR3DL3 /// KIR3DS1 (11738374_at) / RFU C1QL1 (11718748_at) / Fold change /veh C1QL1 (11718748_at) / RFU TMPRSS4 (11747572_a_at) / Fold change /veh TMPRSS4 (11747572_a_at) / RFU HAMP (11756126_x_at) / Fold change /veh HAMP (11756126_x_at) / RFU RNFT2 (11725882_a_at) / Fold change /veh RNFT2 (11725882_a_at) / RFU NR4A2 (11747474_a_at) / Fold change /veh NR4A2 (11747474_a_at) / RFU ABCC12 (11746883_a_at) / Fold change /veh ABCC12 (11746883_a_at) / RFU TMEM136 (11760407_x_at) / Fold change /veh TMEM136 (11760407_x_at) / RFU CLDN22 /// WWC2 (11732394_at) / Fold change /veh CLDN22 /// WWC2 (11732394_at) / RFU HLA-DPB1 (11760878_x_at) / Fold change /veh HLA-DPB1 (11760878_x_at) / RFU SPINT1 (11716480_a_at) / Fold change /veh SPINT1 (11716480_a_at) / RFU GAP43 (11754022_s_at) / Fold change /veh GAP43 (11754022_s_at) / RFU A4GNT (11735810_at) / Fold change /veh A4GNT (11735810_at) / RFU PRB3 (11715151_x_at) / Fold change /veh PRB3 (11715151_x_at) / RFU TUBB4B (11761932_at) / Fold change /veh TUBB4B (11761932_at) / RFU CAPN14 (11732068_a_at) / Fold change /veh CAPN14 (11732068_a_at) / RFU TMCC2 (11721928_a_at) / Fold change /veh TMCC2 (11721928_a_at) / RFU IRGQ (11745062_a_at) / Fold change /veh IRGQ (11745062_a_at) / RFU FAM174B (11720279_a_at) / Fold change /veh FAM174B (11720279_a_at) / RFU TMPRSS4 (11748680_a_at) / Fold change /veh TMPRSS4 (11748680_a_at) / RFU FAM212B (11763350_a_at) / Fold change /veh FAM212B (11763350_a_at) / RFU PLEKHG5 (11743358_a_at) / Fold change /veh PLEKHG5 (11743358_a_at) / RFU ZSCAN30 (11745921_a_at) / Fold change /veh ZSCAN30 (11745921_a_at) / RFU CMKLR1 (11741424_a_at) / Fold change /veh CMKLR1 (11741424_a_at) / RFU LOC101060620 /// MAPK8IP1 (11723275_at) / Fold change /veh LOC101060620 /// MAPK8IP1 (11723275_at) / RFU SPTSSB (11747773_x_at) / Fold change /veh SPTSSB (11747773_x_at) / RFU PRSS12 (11739890_at) / Fold change /veh PRSS12 (11739890_at) / RFU BIN1 (11741810_x_at) / Fold change /veh BIN1 (11741810_x_at) / RFU WNT11 (11732464_a_at) / Fold change /veh WNT11 (11732464_a_at) / RFU C10orf10 (11716521_a_at) / Fold change /veh C10orf10 (11716521_a_at) / RFU C5orf56 (11738089_at) / Fold change /veh C5orf56 (11738089_at) / RFU CYB561 (11721691_x_at) / Fold change /veh CYB561 (11721691_x_at) / RFU ANKRD19P (11752326_a_at) / Fold change /veh ANKRD19P (11752326_a_at) / RFU OR2T12 /// OR2T33 /// OR2T8 (11738714_s_at) / Fold change /veh OR2T12 /// OR2T33 /// OR2T8 (11738714_s_at) / RFU VCAN (11748164_a_at) / Fold change /veh VCAN (11748164_a_at) / RFU JSRP1 (11732532_at) / Fold change /veh JSRP1 (11732532_at) / RFU KRTAP10-11 (11738290_x_at) / Fold change /veh KRTAP10-11 (11738290_x_at) / RFU MYO3A (11730013_a_at) / Fold change /veh MYO3A (11730013_a_at) / RFU EBF3 (11725865_a_at) / Fold change /veh EBF3 (11725865_a_at) / RFU CAMK2N1 (11719241_x_at) / Fold change /veh CAMK2N1 (11719241_x_at) / RFU C5orf56 (11738088_a_at) / Fold change /veh C5orf56 (11738088_a_at) / RFU OLFML3 (11715873_a_at) / Fold change /veh OLFML3 (11715873_a_at) / RFU LOC100653217 /// NTM (11731650_a_at) / Fold change /veh LOC100653217 /// NTM (11731650_a_at) / RFU MAPK11 (11762145_a_at) / Fold change /veh MAPK11 (11762145_a_at) / RFU FIZ1 (11724087_x_at) / Fold change /veh FIZ1 (11724087_x_at) / RFU OASL (11726364_x_at) / Fold change /veh OASL (11726364_x_at) / RFU SOX15 (11748057_x_at) / Fold change /veh SOX15 (11748057_x_at) / RFU CD79A (11719716_a_at) / Fold change /veh CD79A (11719716_a_at) / RFU HIST1H1D (11736915_at) / Fold change /veh HIST1H1D (11736915_at) / RFU CASKIN2 (11723855_a_at) / Fold change /veh CASKIN2 (11723855_a_at) / RFU LOC730098 (11760151_x_at) / Fold change /veh LOC730098 (11760151_x_at) / RFU OR4N2 (11742367_at) / Fold change /veh OR4N2 (11742367_at) / RFU PRRT2 (11749266_a_at) / Fold change /veh PRRT2 (11749266_a_at) / RFU SNX32 (11753110_a_at) / Fold change /veh SNX32 (11753110_a_at) / RFU CDHR5 (11726645_a_at) / Fold change /veh CDHR5 (11726645_a_at) / RFU RCAN1 (11760418_a_at) / Fold change /veh RCAN1 (11760418_a_at) / RFU FAM167A (11723789_a_at) / Fold change /veh FAM167A (11723789_a_at) / RFU FAM26E (11764081_at) / Fold change /veh FAM26E (11764081_at) / RFU ISYNA1 (11749810_s_at) / Fold change /veh ISYNA1 (11749810_s_at) / RFU ACY1 (11761880_at) / Fold change /veh ACY1 (11761880_at) / RFU 11764098_at / Fold change /veh 11764098_at / RFU SAMD14 (11745864_x_at) / Fold change /veh SAMD14 (11745864_x_at) / RFU NPB (11741838_a_at) / Fold change /veh NPB (11741838_a_at) / RFU TMPRSS6 (11731388_a_at) / Fold change /veh TMPRSS6 (11731388_a_at) / RFU KRTAP10-2 (11738614_at) / Fold change /veh KRTAP10-2 (11738614_at) / RFU ARHGAP8 /// PRR5-ARHGAP8 (11727945_x_at) / Fold change /veh ARHGAP8 /// PRR5-ARHGAP8 (11727945_x_at) / RFU KRTAP5-7 /// NADSYN1 (11734609_at) / Fold change /veh KRTAP5-7 /// NADSYN1 (11734609_at) / RFU RASL12 (11751679_a_at) / Fold change /veh RASL12 (11751679_a_at) / RFU CDKN2B (11736163_a_at) / Fold change /veh CDKN2B (11736163_a_at) / RFU PRF1 (11729649_at) / Fold change /veh PRF1 (11729649_at) / RFU, ZNF638 /// ZNF638-IT1 / Fold change vs veh, ZNF638 /// ZNF638-IT1 / RFU, PANK3 / Fold change vs veh, PANK3 / RFU, SH3YL1 / Fold change vs veh, SH3YL1 / RFU, ZEB2 / Fold change vs veh, ZEB2 / RFU, NRIP1 / Fold change vs veh, NRIP1 / RFU, PTTG1IP / Fold change vs veh, PTTG1IP / RFU, CAPN2 / Fold change vs veh, CAPN2 / RFU, MED14 / Fold change vs veh, MED14 / RFU, SNORA58 / Fold change vs veh, SNORA58 / RFU, C1orf63 / Fold change vs veh, C1orf63 / RFU, LRRFIP1 / Fold change vs veh, LRRFIP1 / RFU, NDUFAF7 / Fold change vs veh, NDUFAF7 / RFU, SLC12A2 / Fold change vs veh, SLC12A2 / RFU, IBTK / Fold change vs veh, IBTK / RFU, ESF1 / Fold change vs veh, ESF1 / Fold change vs veh, TMEM50B / RFU, TAOK1 / Fold change vs veh, TAOK1 / RFU, ACBD3 / Fold change vs veh, ACBD3 / RFU, TMA16 / Fold change vs veh, TMA16 / RFU, RWDD3 / Fold change vs veh, RWDD3 / RFU, BCAT1 / Fold change vs veh, BCAT1 / RFU, EDEM3 / Fold change vs veh, EDEM3 / RFU, TMEM33 / Fold change vs veh, TMEM33 / RFU, WDR75 / Fold change vs veh, WDR75 / RFU, AHCTF1 / Fold change vs veh, AHCTF1 / RFU, TFRC / Fold change vs veh, TFRC / RFU, ZDHHC17 / Fold change vs veh, ZDHHC17 / RFU, NOM1 / Fold change vs veh, NOM1 / RFU, ARL8B / Fold change vs veh, ARL8B / RFU, ZBTB11 / Fold change vs veh, ZBTB11 / RFU, TAMM41 / Fold change vs veh, TAMM41 / RFU, KIAA1704 /// LOC100996395 / Fold change vs veh, KIAA1704 /// LOC100996395 / RFU, ING1 / Fold change vs veh, ING1 / RFU, TRMT61B / Fold change vs veh, TRMT61B / RFU, FUBP3 / Fold change vs veh, FUBP3 / RFU, TP53 / Fold change vs veh, TP53 / RFU, TNKS2 / Fold change vs veh, TNKS2 / RFU, ZFP14 / Fold change vs veh, ZFP14 / RFU, ACTR2 / Fold change vs veh, ACTR2 / RFU, PPP3R1 / Fold change vs veh, PPP3R1 / RFU, PIK3R1 / Fold change vs veh, PIK3R1 / RFU, HNRNPA1 / Fold change vs veh, HNRNPA1 / RFU, RNF170 / Fold change vs veh, RNF170 / RFU, ZNF28 / Fold change vs veh, ZNF28 / RFU, RNGTT / Fold change vs veh, RNGTT / RFU, OGT / Fold change vs veh, OGT / RFU, BRD1 / Fold change vs veh, BRD1 / RFU, MARS / Fold change vs veh, MARS / RFU, ZNF655 / Fold change vs veh, ZNF655 / RFU, FAHD1 / Fold change vs veh, FAHD1 / RFU, BDP1 / Fold change vs veh, BDP1 / RFU, LRRCC1 / Fold change vs veh, LRRCC1 / RFU, ARID1A / Fold change vs veh, ARID1A / RFU, ZNF146 / Fold change vs veh, ZNF146 / RFU, ZNF330 / Fold change vs veh, ZNF330 / RFU, GPN3 / Fold change vs veh, GPN3 / RFU, C9orf123 / Fold change vs veh, C9orf123 / RFU, N4BP2L2 / Fold change vs veh, N4BP2L2 / RFU, ARFIP1 / Fold change vs veh, ARFIP1 / RFU, FAM179B / Fold change vs veh, FAM179B / RFU, BCL10 / Fold change vs veh, BCL10 / RFU, UHRF1BP1L / Fold change vs veh, UHRF1BP1L / RFU, BET1 / Fold change vs veh, BET1 / RFU, CNOT2 / Fold change vs veh, CNOT2 / RFU, ZNF268 / Fold change vs veh, ZNF268 / Fold change vs veh, ZNF507 / RFU, DGCR2 / Fold change vs veh, DGCR2 / RFU, WDSUB1 / Fold change vs veh, WDSUB1 / Fold change vs veh, HSP90B1 /// MIR3652 / RFU, ADSS / Fold change vs veh, ADSS / RFU, GK / Fold change vs veh, GK / RFU, ZNF148 / Fold change vs veh, ZNF148 / RFU, TAF9 / Fold change vs veh, TAF9 / RFU, SLC1A5 / Fold change vs veh, SLC1A5 / RFU, SLMO2 / Fold change vs veh, SLMO2 / RFU, ABCC4 / Fold change vs veh, ABCC4 / RFU, LOC101060439 /// RAP1B / Fold change vs veh, LOC101060439 /// RAP1B / RFU, RFX7 / Fold change vs veh, RFX7 / RFU, GTPBP10 / Fold change vs veh, GTPBP10 / RFU, CNEP1R1 / Fold change vs veh, CNEP1R1 / RFU, BIVM-ERCC5 /// ERCC5 / Fold change vs veh, BIVM-ERCC5 /// ERCC5 / RFU, ILF3 / Fold change vs veh, ILF3 / RFU 11762660_at / Fold change /veh 11762660_at / RFU VCAN (11757783_s_at) / Fold change /veh VCAN (11757783_s_at) / RFU DDX43 (11728927_at) / Fold change /veh DDX43 (11728927_at) / RFU KRT8 (11758188_x_at) / Fold change /veh KRT8 (11758188_x_at) / RFU NKD1 (11759106_at) / Fold change /veh NKD1 (11759106_at) / RFU SRD5A1 (11742802_a_at) / Fold change /veh SRD5A1 (11742802_a_at) / RFU TPSAB1 /// TPSB2 (11721975_s_at) / Fold change /veh TPSAB1 /// TPSB2 (11721975_s_at) / RFU GSTM3 (11746129_a_at) / Fold change /veh GSTM3 (11746129_a_at) / RFU IL23R (11737362_x_at) / Fold change /veh IL23R (11737362_x_at) / RFU TMEM51 (11727254_a_at) / Fold change /veh TMEM51 (11727254_a_at) / RFU PIWIL2 (11732686_x_at) / Fold change /veh PIWIL2 (11732686_x_at) / RFU ORM1 (11744905_x_at) / Fold change /veh ORM1 (11744905_x_at) / RFU CCDC152 (11743942_at) / Fold change /veh CCDC152 (11743942_at) / RFU ECM1 (11717891_a_at) / Fold change /veh ECM1 (11717891_a_at) / RFU IL23R (11748794_a_at) / Fold change /veh IL23R (11748794_a_at) / RFU TNFAIP8L3 (11732012_x_at) / Fold change /veh TNFAIP8L3 (11732012_x_at) / RFU MBOAT4 (11741988_at) / Fold change /veh MBOAT4 (11741988_at) / RFU 11764193_at / Fold change /veh 11764193_at / RFU TMEM53 (11763286_at) / Fold change /veh TMEM53 (11763286_at) / RFU MAGEB2 (11727129_at) / Fold change /veh MAGEB2 (11727129_at) / RFU TMEM200A (11744735_a_at) / Fold change /veh TMEM200A (11744735_a_at) / RFU CCDC152 (11751479_a_at) / Fold change /veh CCDC152 (11751479_a_at) / RFU FAM211A (11726209_a_at) / Fold change /veh FAM211A (11726209_a_at) / RFU RGS16 (11746705_a_at) / Fold change /veh RGS16 (11746705_a_at) / RFU VCAN (11755009_s_at) / Fold change /veh VCAN (11755009_s_at) / RFU RHOB (11743442_s_at) / Fold change /veh RHOB (11743442_s_at) / RFU RGS16 (11720943_a_at) / Fold change /veh RGS16 (11720943_a_at) / RFU RGS16 (11720944_at) / Fold change /veh RGS16 (11720944_at) / RFU, VPS4B / Fold change vs veh, VPS4B / RFU, CREB1 / Fold change vs veh, CREB1 / RFU, DNAJC13 / Fold change vs veh, DNAJC13 / RFU, GNAQ / Fold change vs veh, GNAQ / RFU, CDK5R1 / Fold change vs veh, CDK5R1 / RFU, ZRANB3 / Fold change vs veh, ZRANB3 / RFU, CUL4A / Fold change vs veh, CUL4A / RFU, CCNY / Fold change vs veh, CCNY / RFU, UFL1 / Fold change vs veh, UFL1 / RFU, COG3 / Fold change vs veh, COG3 / RFU, DIAPH2 / Fold change vs veh, DIAPH2 / RFU, SKA2 / Fold change vs veh, SKA2 / RFU, AFF3 / Fold change vs veh, AFF3 / RFU, LMF1 / Fold change vs veh, LMF1 / RFU, IPO11 / Fold change vs veh, IPO11 / RFU, DFFB / Fold change vs veh, DFFB / RFU, FOXP1 / Fold change vs veh, FOXP1 / RFU, CARD8 / Fold change vs veh, CARD8 / RFU, STRN3 / Fold change vs veh, STRN3 / RFU, ADK / Fold change vs veh, ADK / RFU, RASSF2 / Fold change vs veh, RASSF2 / RFU, WIPF1 / Fold change vs veh, WIPF1 / RFU, LARP1B / Fold change vs veh, LARP1B / RFU, RASA1 / Fold change vs veh, RASA1 / RFU, RB1 / Fold change vs veh, RB1 / RFU, PPFIA1 / Fold change vs veh, PPFIA1 / RFU, MAT2A / Fold change vs veh, MAT2A / RFU, CCT5 / Fold change vs veh, CCT5 / RFU, WDR92 / Fold change vs veh, WDR92 / RFU, CUX1 / Fold change vs veh, CUX1 / RFU, TTC7A / Fold change vs veh, TTC7A / RFU, TMEM135 / Fold change vs veh, TMEM135 / RFU, DEPTOR / Fold change vs veh, DEPTOR / RFU, CPM / Fold change vs veh, CPM / RFU, DNAJB6 / Fold change vs veh, DNAJB6 / RFU, CACNA2D3 / Fold change vs veh, CACNA2D3 / RFU, DTX4 / Fold change vs veh, DTX4 / RFU, TFCP2 / Fold change vs veh, TFCP2 / RFU, GMCL1 /// GMCL1P1 / Fold change vs veh, GMCL1 /// GMCL1P1 / RFU, AEBP2 / Fold change vs veh, AEBP2 / RFU, SNHG1 /// SNORD22 /// SNORD25 /// SNORD26 /// SNORD27 /// SNORD28 /// SNORD29 /// SNORD31 / Fold change vs veh, SNHG1 /// SNORD22 /// SNORD25 /// SNORD26 /// SNORD27 /// SNORD28 /// SNORD29 /// SNORD31 / Fold change (Aza/veh), C12orf56 (ProbeSet 11735607_a_at) / Fold change (ACY-1035/veh), C12orf56 (ProbeSet 11735607_a_at) / Fold change (Aza/veh), FGFR1OP (ProbeSet 11751329_s_at) / Fold change (ACY-1035/veh), FGFR1OP (ProbeSet 11751329_s_at) / Fold change (Aza/veh), VPS36 (ProbeSet 11739960_a_at) / Fold change (ACY-1035/veh), VPS36 (ProbeSet 11739960_a_at) / RFU SYPL1 (11715823_x_at) / Fold change /veh SYPL1 (11715823_x_at) / RFU IGFBP7 (11715501_s_at) / Fold change /veh IGFBP7 (11715501_s_at) / RFU REEP3 (11722064_at) / Fold change /veh REEP3 (11722064_at) / RFU IGLL1 (11728026_x_at) / Fold change /veh IGLL1 (11728026_x_at): dose or concentration left out as unconfirmed
Conditions: ProbeSet 11759095_at; LIST D

Nc1ccc(-c2cccs2)cc1NC(=O)c1ccc2c(c1)cc(C1CC1)n2CCN1CCOCC1 [ACY-1035]
Fold change vs veh, GNAQ: 0.95
